Assay results reported in ChEMBL document CHEMBL1201862, “PubChem BioAssay data set” (2004).
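Values below derive from 48-hour exposures of cells grown in 96-well plates, with endpoints linearly interpolated between the two concentrations bracketing the appropriate inhibition level. At the GI50, growth is halved.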 The source made the active and inactive calls. No stated cut-off is given here; in the data, active = GI50 up to about 1.1 µM and inactive = higher.

Assays:
Test in all cases: NCI anticancer screen, dose series, 48 h
[1] = test system: ACHN
[2] = test system: M14
[3] = test system: SN12C
[4] = test system: SF-268
[5] = test system: Hs-578T
[6] = test system: U-251
[7] = test system: OVCAR-8
[8] = test system: CAKI-1
[9] = test system: NCI-H23
[10] = test system: Malme-3M
[11] = test system: COLO 205
[12] = test system: EKVX
[13] = test system: MDA-MB-435
[14] = test system: HOP-62
[15] = test system: HCT-116
[16] = test system: SF-539
[17] = test system: MOLT-4
[18] = test system: NCI-H226
[19] = test system: SNB-75

| Structure (SMILES) | GI50 [1] | GI50 [2] | GI50 [3] | GI50 [4] | GI50 [5] | GI50 [6] | GI50 [7] | GI50 [8] | GI50 [9] | GI50 [10] | GI50 [11] | GI50 [12] | GI50 [13] | GI50 [14] | GI50 [15] | GI50 [16] | GI50 [17] | GI50 [18] | GI50 [19] |
| --- | --- | --- | --- | --- | --- | --- | --- | --- | --- | --- | --- | --- | --- | --- | --- | --- | --- | --- | --- |
| Clc1ccc(Nc2ncco2)cc1Cl | > 10 µM (inactive) | > 10 µM (inactive) | > 10 µM (inactive) | > 10 µM (inactive) | > 10 µM (inactive) | > 10 µM (inactive) | > 10 µM (inactive) | > 10 µM (inactive) | > 10 µM (inactive) | > 10 µM (inactive) | > 10 µM (inactive) | > 10 µM (inactive) | > 10 µM (inactive) | > 10 µM (inactive) | > 10 µM (inactive) | > 10 µM (inactive) | > 10 µM (inactive) | > 10 µM (inactive) | > 10 µM (inactive) |
| Nc1ccn(C2CCC(COP(=O)(O)OCC(O)COP(=O)(O)OCC3OC(n4cc(F)c(=O)[nH]c4=O)CC3O)O2)c(=O)n1 (stereo not given) | < 0.0106 µM (active) | 0.473 µM (active) | 0.135 µM (active) | 0.0101 µM (active) | 1.96 µM (inactive) | 1.04 µM (active) | 0.157 µM (active) | 0.316 µM (active) | 0.139 µM (active) | > 53.8 µM (inactive) | 8.3 µM (inactive) | > 75.9 µM (inactive) | 14.8 µM (inactive) | 0.232 µM (active) | 0.581 µM (active) | 0.0216 µM (active) | 0.102 µM (active) | > 100 µM (inactive) | 3.54 µM (inactive) |
| O=c1[nH]c(=O)n(C2OC(CO)C(O)C2O)c2nc(-c3ccc(-c4ccccc4)cc3)cnc12 (stereo not given) | > 100 µM (inactive) | 81.8 µM (inactive) | > 100 µM (inactive) | > 100 µM (inactive) | > 100 µM (inactive) | > 100 µM (inactive) | > 100 µM (inactive) | > 100 µM (inactive) | > 100 µM (inactive) | > 100 µM (inactive) | > 100 µM (inactive) | > 100 µM (inactive) | > 100 µM (inactive) | > 100 µM (inactive) | > 100 µM (inactive) | > 100 µM (inactive) | > 100 µM (inactive) | > 100 µM (inactive) | > 100 µM (inactive) |
| CC(=O)CC(=O)N1CCOC1=O | > 10 µM (inactive) | > 10 µM (inactive) | > 10 µM (inactive) | > 10 µM (inactive) | > 10 µM (inactive) | > 10 µM (inactive) | > 10 µM (inactive) | > 10 µM (inactive) | > 10 µM (inactive) | > 10 µM (inactive) | > 10 µM (inactive) | > 10 µM (inactive) | > 10 µM (inactive) | > 10 µM (inactive) | > 10 µM (inactive) | > 10 µM (inactive) | > 10 µM (inactive) | > 10 µM (inactive) | 5.26 µM (inactive) |
| N=C1N=C(N)c2cc3c(cc21)SCCSCCCSCCS3 | 12.9 µM (inactive) | 16.6 µM (inactive) | 14.6 µM (inactive) | 12.8 µM (inactive) | 10.1 µM (inactive) | 15.1 µM (inactive) | 18 µM (inactive) | 42.4 µM (inactive) | 11.3 µM (inactive) | 20.5 µM (inactive) | 12 µM (inactive) | 19.9 µM (inactive) | 11.1 µM (inactive) | 13.6 µM (inactive) | 9.59 µM (inactive) | 20.1 µM (inactive) | 10.2 µM (inactive) | 20.5 µM (inactive) | 14.8 µM (inactive) |
| O=C1c2ccccc2C(=O)c2c1oc(=O)c1ccccc21 | 4.59 µM (inactive) | 6.05 µM (inactive) | 3.49 µM (inactive) | 4.34 µM (inactive) | 6.43 µM (inactive) | 2.96 µM (inactive) | 2 µM (inactive) | 6.21 µM (inactive) | 4.23 µM (inactive) | 2.63 µM (inactive) | 9.71 µM (inactive) | 5.77 µM (inactive) | 1.06 µM (active) | 8.13 µM (inactive) | 1.03 µM (active) | 10.7 µM (inactive) | 3.79 µM (inactive) | 8.93 µM (inactive) | 5.24 µM (inactive) |
| O=c1oc2ccccc2cc1-c1nc2ccc([N+](=O)[O-])cc2o1 | 30.1 µM (inactive) | > 100 µM (inactive) | > 100 µM (inactive) | > 100 µM (inactive) | 84.9 µM (inactive) | > 100 µM (inactive) | > 100 µM (inactive) | > 100 µM (inactive) | > 100 µM (inactive) | > 100 µM (inactive) | > 100 µM (inactive) | > 100 µM (inactive) | > 100 µM (inactive) | 28.1 µM (inactive) | > 100 µM (inactive) | 65.2 µM (inactive) | > 100 µM (inactive) | > 100 µM (inactive) | > 100 µM (inactive) |
| Ic1ccc2c(c1)N(c1ccccc1)c1cc([N-]c3ccc4nc5ccc(I)cc5[n+](-c5ccccc5)c4c3)ccc1N2 | > 100 µM (inactive) | 26.9 µM (inactive) | > 100 µM (inactive) | > 100 µM (inactive) | > 100 µM (inactive) | 45.6 µM (inactive) | > 100 µM (inactive) | > 100 µM (inactive) | 41.3 µM (inactive) | 38 µM (inactive) | 16.2 µM (inactive) | 32.2 µM (inactive) | 31.4 µM (inactive) | 41.3 µM (inactive) | 35 µM (inactive) | > 100 µM (inactive) | 68.9 µM (inactive) | > 100 µM (inactive) | > 100 µM (inactive) |
| CC(=O)c1nc(C#N)c(N)o1 | > 100 µM (inactive) | > 100 µM (inactive) | > 100 µM (inactive) | > 100 µM (inactive) | > 100 µM (inactive) | > 100 µM (inactive) | > 100 µM (inactive) | > 100 µM (inactive) | > 100 µM (inactive) | > 100 µM (inactive) | > 100 µM (inactive) | > 100 µM (inactive) | > 100 µM (inactive) | > 100 µM (inactive) | > 100 µM (inactive) | > 100 µM (inactive) | > 100 µM (inactive) | > 100 µM (inactive) | > 100 µM (inactive) |
| CCOC(=O)C(NC(=O)c1cccc(Cl)c1)(N1CCN(c2cc3c(cc2F)c(=O)c(C(=O)O)cn3C2CC2)CC1)C(F)(F)F (stereo not given) | 15.5 µM (inactive) | 15.9 µM (inactive) | 26.9 µM (inactive) | 12.5 µM (inactive) | 20.7 µM (inactive) | 5.24 µM (inactive) | 17.5 µM (inactive) | 17.3 µM (inactive) | 15.4 µM (inactive) | 18 µM (inactive) | 16.6 µM (inactive) | 18.6 µM (inactive) | 14.2 µM (inactive) | 22.2 µM (inactive) | 12.7 µM (inactive) | 16.7 µM (inactive) | 3.71 µM (inactive) | 19.5 µM (inactive) | 20.2 µM (inactive) |
| O=C1C(Cl)=C(N2CCN(c3ncccn3)CC2)C(=O)c2c(O)ccc(O)c21 | 2.43 µM (inactive) | 1.88 µM (inactive) | 1.85 µM (inactive) | 3.15 µM (inactive) | 2.9 µM (inactive) | 3.63 µM (inactive) | 2.18 µM (inactive) | 2.05 µM (inactive) | 2.27 µM (inactive) | 1.94 µM (inactive) | 1.75 µM (inactive) | 11.4 µM (inactive) | 1.67 µM (inactive) | 2.55 µM (inactive) | 1.69 µM (inactive) | 1.97 µM (inactive) | 0.697 µM (active) | 21.8 µM (inactive) | 9.02 µM (inactive) |
| N=C(N)NS(=O)(=O)c1ccc(NC(=O)c2ccc3nc4ccccc4c(O)c3c2)cc1 | > 100 µM (inactive) | > 100 µM (inactive) | > 100 µM (inactive) | > 100 µM (inactive) | > 100 µM (inactive) | > 100 µM (inactive) | > 100 µM (inactive) | > 100 µM (inactive) | > 100 µM (inactive) | > 100 µM (inactive) | > 100 µM (inactive) | > 100 µM (inactive) | > 100 µM (inactive) | > 100 µM (inactive) | > 100 µM (inactive) | > 100 µM (inactive) | > 100 µM (inactive) | > 100 µM (inactive) | > 100 µM (inactive) |
| Clc1cc2nc(C3CCCCO3)[nH]c2cc1Cl (stereo not given) | 54.8 µM (inactive) | 28.5 µM (inactive) | 38.9 µM (inactive) | 27.9 µM (inactive) | 7.29 µM (inactive) | 34.3 µM (inactive) | 17.7 µM (inactive) | 29.1 µM (inactive) | 18 µM (inactive) | 38.5 µM (inactive) | 26 µM (inactive) | 48.1 µM (inactive) | 7.67 µM (inactive) | 64.7 µM (inactive) | 13.7 µM (inactive) | 26.8 µM (inactive) | 33.3 µM (inactive) | 86.7 µM (inactive) | 15.2 µM (inactive) |
| C[Si](C)(C)C1=C([Si](C)(C)C)C(Cl)(Cl)C1=O | 1.74 µM (inactive) | 2.65 µM (inactive) | 3.31 µM (inactive) | 5.94 µM (inactive) | 10.4 µM (inactive) | 4.08 µM (inactive) | 2.23 µM (inactive) | 2.36 µM (inactive) | 4.26 µM (inactive) | 1.75 µM (inactive) | 2.04 µM (inactive) | 4.72 µM (inactive) | 2 µM (inactive) | 18.7 µM (inactive) | 3.39 µM (inactive) | 5.22 µM (inactive) | 0.671 µM (active) | 3.13 µM (inactive) | 8.77 µM (inactive) |
| Clc1ccccc1-c1nc(-c2ccncc2)no1 [PIFEXOLE] | 88.1 µM (inactive) | 62.2 µM (inactive) | 38.2 µM (inactive) | 59.6 µM (inactive) | 36.6 µM (inactive) | 65.8 µM (inactive) | 90.6 µM (inactive) | 57.3 µM (inactive) | 49.4 µM (inactive) | 75.3 µM (inactive) | 40.8 µM (inactive) | 16.1 µM (inactive) | 48.6 µM (inactive) | > 100 µM (inactive) | 43.4 µM (inactive) | > 100 µM (inactive) | 26.8 µM (inactive) | 98.9 µM (inactive) | 89.3 µM (inactive) |
